# Experimental data reported in patent US20250195502A1, “APPLICATION OF TETRACYCLIC COMPOUND IN TREATMENT OF TUMORS” (SHANGHAI SHIJIANG BIOTECHNOLOGY CO., LTD, priority 2022, published 2025).
# Test system: D341 Med (cerebellar medulloblastoma cell)
# Test: Cell viability assay (Promega CellTiter-Glo), inhibitory effect on D341 Med
# Type: cell-based
# Settings: Homo sapiens, 72 h, 3 days of culture, read-out: inhibitory effect on brain cell line D341 Med (IC50)
# Protocol: (§1) The inhibitory effect of the compounds prepared in the Examples of the present invention on various brain tumor cell lines was detected using cell viability assay reagent.
# (§2) Cell viability was detected using the Promega CellTiter-Glo kit, cell viability was determined by directly measuring intracellular ATP content. In the experiment, the IC50 value of the compounds prepared in the Examples of the present invention on various brain tumor cell lines was detected.
# (§3) Each tumor cell was cultured in relevant medium. After cell passage, the gradient diluted compounds prepared in the Examples of the present invention was added. After 3 days of culture, the relevant IC50 (50% inhibiting concentration) was measured. The name, source and culture conditions of each tumor cell line were as follows:
# Cell line D341 Med (ATCC, No. HTB-187) was cultured in 20% fetal bovine serum-containing EMEM medium (+P/S).
row,SMILES,IC50 [nM]
1,CCCCc1c2c(OC)c(OC)ccc2cc2[n+]1CCc1cc3c(cc1-2)OCO3 [compound AB31707],1370
2,CCCCc1c2c(OC)c(OC)cc(Br)c2cc2[n+]1CCc1cc3c(cc1-2)OCO3 [compound AB31711],920

# Test system: NCI-H82 (human small cell lung cancer cell)
# Test: Cell viability assay (Promega CellTiter-Glo), inhibitory effect on NCI-H82
# Type: cell-based
# Settings: 72 h, 3 days of culture
# Protocol: (§4) The inhibitory effect of the compounds prepared in the Examples of the present invention on various tumor cell lines was detected using cell viability assay reagent.
# (§5) Cell viability was detected using the Promega CellTiter-Glo kit, cell viability was determined by directly measuring intracellular ATP content. In the experiment, the ICso value of the compounds prepared in the Examples of the present invention on various tumor cell lines was detected.
# as §3
# Cell line NCI-H82 (ATCC, No. HTB-175) was cultured in 10% fetal bovine serum-containing RPMI1640 medium (+P/S).
row,SMILES,IC50 [nM]
1,CCCCc1c2c(OC)c(OC)ccc2cc2[n+]1CCc1cc3c(cc1-2)OCO3 [compound AB31707],1170
2,CCCCc1c2c(OC)c(OC)cc(Br)c2cc2[n+]1CCc1cc3c(cc1-2)OCO3 [compound AB31711],650

# Test system: SW48 (human colon adenocarcinoma cell)
# Test: Cell viability assay (Promega CellTiter-Glo), inhibitory effect on SW48
# Type: cell-based
# Settings: 72 h, 3 days of culture
# Protocol: as §4, §5, §3
# Cell line SW48 (ATCC, No. CCL-231) was cultured in 10% fetal bovine serum-containing Leibovitz's L-15 medium (+P/S).
row,SMILES,IC50 [nM]
1,CCCCc1c2c(OC)c(OC)ccc2cc2[n+]1CCc1cc3c(cc1-2)OCO3 [compound AB31707],1420
2,CCCCc1c2c(OC)c(OC)cc(Br)c2cc2[n+]1CCc1cc3c(cc1-2)OCO3 [compound AB31711],820

# Test system: MDA-MB-453 (breast cancer cell)
# Test: Cell viability assay (Promega CellTiter-Glo), inhibitory effect on MDA-MB-453
# Type: cell-based
# Settings: Homo sapiens, 72 h, 3 days of culture
# Protocol: as §4, §5, §3
# Cell line MDA-MB-453 (ATCC, No. HTB-131) was cultured in 10% fetal bovine serum-containing Leibovitz's L-15 medium (+P/S).
row,SMILES,IC50 [nM]
1,CCCCc1c2c(OC)c(OC)ccc2cc2[n+]1CCc1cc3c(cc1-2)OCO3 [compound AB31707],620
2,CCCCc1c2c(OC)c(OC)cc(Br)c2cc2[n+]1CCc1cc3c(cc1-2)OCO3 [compound AB31711],500

# Test system: NB-1 (brain neuroblastoma cell)
# Test: Cell viability assay (Promega CellTiter-Glo), inhibitory effect on NB-1
# Type: cell-based
# Settings: Homo sapiens, 72 h, 3 days of culture, read-out: inhibitory effect on brain cell line NB-1 (IC50)
# Protocol: as §1, §2, §3
# Cell line NB-1 (ATCC, No. HTB-131) was cultured in 10% fetal bovine serum-containing Leibovitz's L-15 medium (+P/S).
row,SMILES,IC50 [nM]
1,CCCCc1c2c(OC)c(OC)ccc2cc2[n+]1CCc1cc3c(cc1-2)OCO3 [compound AB31707],290
2,CCCCc1c2c(OC)c(OC)cc(Br)c2cc2[n+]1CCc1cc3c(cc1-2)OCO3 [compound AB31711],240

# Test system: Con-NCI-H82 cell (NCI-H82 transfected with empty virus vector)
# Test: Cell viability assay (Promega CellTiter-Glo), inhibitory effect on Con-NCI-H82 cell
# Type: cell-based
# Settings: Homo sapiens; NCI-H82 transfected with empty virus vector (control); CellTiter-Glo; read-out: inhibitory effect on Con-NCI-H82 (IC50)
# Protocol: (§6) The role of expression level of NNMT gene and DNMT1 in the sensitivity of NCI-H82 cell to the compounds prepared in the Examples of the present invention was determined
# (§7) The expression of NNMT protein in NCI-H82 cell was overexpressed by inserting the NNMT gene into NCI-H82 cell using a viral vector, and the NNMT protein-overexpressing NCI-H82 cell (ov-NNMT NCI-H82 cell) was obtained. The expression of DNMT1 in NCI-H82 cell was knocked down transfecting (the by shRNA nucleotide sequence of shRNA was […] TTTTTG (SEQ ID No: 2)) using a viral vector, and the NCI-H82 cell with low expression of DNMT1 protein (sh-DNMT1 NCI-H82 cell) was obtained. The control NCI-H82 cell (Con-NCI-H82 cell) was obtained by transfecting NCI-H82 cell with empty virus vector without carrying NNMT gene and shRNA. The expressing content of NNMT protein and DNMT1 protein in the Con-NCI-H82 cell, the expressing content of NNMT protein in the ov-NNMT NCI-H82 cell, and the expressing content of DNMT1 protein in the sh-DNMT1 NCI-H82 cell were detected using Western Blot assay (as shown in FIG. 15 and FIG. 16), it could be seen from FIG. 15 and FIG. 16 that the NNMT protein was overexpressed in the ov-NNMT NCI-H82 cell and the expression of DNMT1 protein was knocked down (i.e, low expression) in the sh-DNMT1 NCI-H82 cell compared with the expression level of NNMT protein and DNMT protein in the Con-NCI-H82 cell.
row,SMILES,IC50 [nM]
1,CCCCc1c2c(OC)c(OC)ccc2cc2[n+]1CCc1cc3c(cc1-2)OCO3 [compound AB31707],1170
2,CCCCc1c2c(OC)c(OC)cc(Br)c2cc2[n+]1CCc1cc3c(cc1-2)OCO3 [compound AB31711],650

# Test system: sh-DNMT1 NCI-H82 cell (DNMT1 knocked down NCI-H82)
# Test: Cell viability assay (Promega CellTiter-Glo), inhibitory effect on sh-DNMT1 NCI-H82 cell
# Type: cell-based
# Settings: Homo sapiens, NCI-H82 with DNMT1 knocked down by shRNA
# Protocol: as §6, §7
row,SMILES,IC50 [nM]
1,CCCCc1c2c(OC)c(OC)ccc2cc2[n+]1CCc1cc3c(cc1-2)OCO3 [compound AB31707],3410
2,CCCCc1c2c(OC)c(OC)cc(Br)c2cc2[n+]1CCc1cc3c(cc1-2)OCO3 [compound AB31711],1900

# Test system: SF126 (human glioblastoma multiforme cell)
# Test: Cell viability assay (Promega CellTiter-Glo), inhibitory effect on SF126
# Type: cell-based
# Settings: 72 h, SF-126, 3 days of culture, Table 3, read-out: inhibitory effect on SF-126 (IC50)
# Protocol: as §4, §5, §3
# Cell line SF126 (JCRB, No. IFO50286) was cultured in 10% fetal bovine serum-containing EMEM medium (+P/S).
# as §1, §2
row,SMILES,IC50 [nM]
1,CCCCc1c2c(OC)c(OC)ccc2cc2[n+]1CCc1cc3c(cc1-2)OCO3 [compound AB31707],10200
2,CCCCc1c2c(OC)c(OC)cc(Br)c2cc2[n+]1CCc1cc3c(cc1-2)OCO3 [compound AB31711],5210

# Same assay, conditions: SF-126, 72 h, SF126, 3 days of culture, Table 4, read-out: inhibitory effect on brain cell line SF126 (IC50)
row,SMILES,IC50 [nM]
1,CCCCc1c2c(OC)c(OC)ccc2cc2[n+]1CCc1cc3c(cc1-2)OCO3 [compound AB31707],10200
2,CCCCc1c2c(OC)c(OC)cc(Br)c2cc2[n+]1CCc1cc3c(cc1-2)OCO3 [compound AB31711],5210

# Test system: CFPAC-1 (human pancreatic cancer cell)
# Test: Cell viability assay (Promega CellTiter-Glo), inhibitory effect on CFPAC-1
# Type: cell-based
# Settings: 72 h, 3 days of culture
# Protocol: as §4, §5, §3
# Cell line CFPAC-1 (ATCC, No. CRL-1918) was cultured in 10% fetal bovine serum-containing IMDM medium (+P/S).
row,SMILES,IC50 [nM]
1,CCCCc1c2c(OC)c(OC)ccc2cc2[n+]1CCc1cc3c(cc1-2)OCO3 [compound AB31707],13000
2,CCCCc1c2c(OC)c(OC)cc(Br)c2cc2[n+]1CCc1cc3c(cc1-2)OCO3 [compound AB31711],9470

# Test system: GB-1 (human brain glioblastoma cell)
# Test: Cell viability assay (Promega CellTiter-Glo), inhibitory effect on GB-1
# Type: cell-based
# Settings: 72 h, 3 days of culture, Table 3, read-out: inhibitory effect on GB-1 (IC50)
# Protocol: as §4, §5, §3
# Cell line GB-1 (JCRB, No. IFO50489) was cultured in 10% fetal bovine serum-containing DMEM medium (+P/S).
# as §1, §2
row,SMILES,IC50 [nM]
1,CCCCc1c2c(OC)c(OC)ccc2cc2[n+]1CCc1cc3c(cc1-2)OCO3 [compound AB31707],8270
2,CCCCc1c2c(OC)c(OC)cc(Br)c2cc2[n+]1CCc1cc3c(cc1-2)OCO3 [compound AB31711],5320

# Same assay, conditions: 72 h, 3 days of culture, Table 4, read-out: inhibitory effect on brain cell line GB-1 (IC50)
row,SMILES,IC50 [nM]
1,CCCCc1c2c(OC)c(OC)ccc2cc2[n+]1CCc1cc3c(cc1-2)OCO3 [compound AB31707],8270
2,CCCCc1c2c(OC)c(OC)cc(Br)c2cc2[n+]1CCc1cc3c(cc1-2)OCO3 [compound AB31711],5320

# Test system: 786-O (clear cell renal cell adenocarcinoma cell)
# Test: Cell viability assay (Promega CellTiter-Glo), inhibitory effect on 786-O
# Type: cell-based
# Settings: Homo sapiens, 786-0, 72 h, 3 days of culture
# Protocol: as §4, §5, §3
# Cell line 786-0 (ATCC, No. CRL-1932) was cultured in 10% fetal bovine serum-containing RPMI1640 medium (+P/S).
row,SMILES,IC50 [nM]
1,CCCCc1c2c(OC)c(OC)ccc2cc2[n+]1CCc1cc3c(cc1-2)OCO3 [compound AB31707],7630
2,CCCCc1c2c(OC)c(OC)cc(Br)c2cc2[n+]1CCc1cc3c(cc1-2)OCO3 [compound AB31711],3970

# Test system: G-401 (human renal carcinoma Wilms cell)
# Test: Cell viability assay (Promega CellTiter-Glo), inhibitory effect on G-401
# Type: cell-based
# Settings: 72 h, 3 days of culture
# Protocol: as §4, §5, §3
# Cell line G-401 (ATCC, No. CRL-1441) was cultured in 10% fetal bovine serum-containing McCoy's 5a medium (+P/S).
row,SMILES,IC50 [nM]
1,CCCCc1c2c(OC)c(OC)ccc2cc2[n+]1CCc1cc3c(cc1-2)OCO3 [compound AB31707],1120
2,CCCCc1c2c(OC)c(OC)cc(Br)c2cc2[n+]1CCc1cc3c(cc1-2)OCO3 [compound AB31711],720

# Test system: Kelly (brain neuroblastoma cell)
# Test: Cell viability assay (Promega CellTiter-Glo), inhibitory effect on Kelly
# Type: cell-based
# Settings: Homo sapiens, 72 h, 3 days of culture, read-out: inhibitory effect on brain cell line Kelly (IC50)
# Protocol: as §1, §2, §3
# Cell line Kelly (ECACC, No. 92110411) was cultured in 10% fetal bovine serum and 2 mM glutamine-containing RPMI1640 medium.
row,SMILES,IC50 [nM]
1,CCCCc1c2c(OC)c(OC)ccc2cc2[n+]1CCc1cc3c(cc1-2)OCO3 [compound AB31707],1240
2,CCCCc1c2c(OC)c(OC)cc(Br)c2cc2[n+]1CCc1cc3c(cc1-2)OCO3 [compound AB31711],880

# Test system: ov-NNMT NCI-H82 cell (NNMT protein-overexpressing NCI-H82)
# Test: Cell viability assay (Promega CellTiter-Glo), inhibitory effect on ov-NNMT NCI-H82 cell
# Type: cell-based
# Settings: Homo sapiens
# Protocol: as §6, §7
row,SMILES,IC50 [nM]
1,CCCCc1c2c(OC)c(OC)ccc2cc2[n+]1CCc1cc3c(cc1-2)OCO3 [compound AB31707],2960
2,CCCCc1c2c(OC)c(OC)cc(Br)c2cc2[n+]1CCc1cc3c(cc1-2)OCO3 [compound AB31711],1430
